PMC12045974, “T cell toxicity induced by tigecycline binding to the mitochondrial ribosome” (Nature Communications, 2025)
Values joined by “and” are separate entries in the source; they are usually repeats but may differ in a detail not shown here. Equal entries are not always repeated.

Columns and labels:
[1] = test system: CD4+ and CD8+ T cells within PBMCs; assay: T cell proliferation by flow cytometry (CTV/CFSE dilution) in stimulated PBMCs; type: cell-based, human
Procedure: After thawing frozen PBMCs, cells were washed with RPMI complemented with 10% FBS, 2.05 mM L-glutamine (Sigma), and 55 μM 2-ME (Gibco) and rested at 37 °C (5% CO2) for 30 min. 250,000 cells per well were seeded in 96-well U-bottom plates with/without Human T-Activator CD3/CD28 beads (Invitrogen) at a 1:1 ratio and 10 ng/ml IL-2 (Proteintech) in RPMI-1640 medium mentioned above. At the same time, antibiotics were added. For the short-term activation assay, cells were harvested 18 h post-stimulation and stained with Aqua fixable live/dead dye (Invitrogen) and surface markers. For the proliferation assays, cells were stained with CFSE (eBioscience) or Cell Trace Violet (ThermoFisher Scientific) dyes before seeding and stimulation, according to the manufacturer’s recommendations. For TCR priming experiments, tigecycline was added at 0, 24 or 72 h post-activation. For mitochondrial mass measuring, cells were stained with Mitotracker Green Fm Dye (Thermo Fisher Scientific) after incubation with Tigecycline. After incubation for 6 days with a half medium (complete, with antibiotics and IL-2) change after 3 days, cells were harvested via centrifugation, and stained with live/dead dye and surface markers for analysis by flow cytometry. The Foxp3/Transcription Factor Staining Buffer Set (Invitrogen) was used to fix cells according to the manufacturer’s instructions. The FACS gating strategy is shown in Supplementary Fig. 2D. Flow cytometry was carried out on a BD Celesta (BD Biosciences) and analyzed in FlowJo (TreeStar) software.

OXPHOS complexes = assay: Western blotting for OXPHOS complexes in Jurkat T cells and PBMCs; type: cell-based; conditions: Jurkat T cells and human PBMCs, 5 μM, 6 days
Procedure: Human PBMCs and Jurkat T cells were seeded in 6-well plates at a density of 1 million cells/ml and incubated with or without antibiotics in RPMI-1640 medium (with 10% FBS, 2.05 mM L-glutamine (Sigma), and 55 μM 2-ME (Gibco)) for 6 days. After centrifugation, cells were lysed in RIPA buffer containing protease and phosphatase inhibitors (cOmplete and PhosSTOP, respectively, Roche). Protein concentrations were determined by BCA (Pierce, Thermo Fisher). Protein samples were resuspended with 1× NuPAGE LDS sample buffer (Thermo Fisher) supplemented with 100 mM dithiothreitol, heated for 10 min at 75 °C, and separated on NuPAGE 4–12% Bis-Tris mini gels (Thermo Fisher) using NuPAGE 1× MES (Thermo Fisher) running buffer, and transferred to PVDF membranes (0.45 μm, Immobilon-P, Sigma) using the iBlot2 system (Invitrogen). Non-specific binding was blocked with TBST containing 5% non-fat milk, followed by overnight incubation at 4 °C with antibodies against Total OXPHOS Human WB Antibody Cocktail (Abcam, Cambridge, UK), followed by HRP-conjugated secondary antibodies for 1 h at room temperature. β-actin, HSP60, and GAPDH (Cell Signaling Technology) were used as loading control. Proteins were detected using Clarity Western ECL Substrate (Bio-Rad, 170-5061). For an example of presentation of full scan blots, see the Source Data file.

PBMCs = assay: Extracellular metabolic flux assay (Seahorse Mito Stress Test, OCR and ECAR); type: cell-based, human; conditions: for glycolysis rates: vs untreated stimulated controls; for ATP coupled OCR / Basal OCR / Maximal OCR / Spare capacity OCR: PBMC, per donor
Procedure: The Seahorse XFe96 Analyzer (Seahorse Bioscience) was used to measure oxygen consumption rate (OCR) and extracellular acidification rate (ECAR) in human PBMCs. 1.5 × 10^6 cells/well were seeded in 24-well plates and stimulated using plate-bound anti-CD3 antibody (2 μg/ml, clone OKT3, BD Biosciences), soluble anti-CD28 antibody (0.5 μg/ml, clone CD28.2, Biolegend) and IL-2 (10 ng/ml, Proteintech) in RPMI-1640 (with 10% FBS, 2.05 mM L-glutamine (Sigma), and 55 μM 2-ME (Gibco)). Cells were treated with or without 5 and 10 µM Tigecycline for 6 days with a half medium change after 3 days. After treatment, cells were washed with Seahorse XF RPMI assay medium, and then 200,000 cells per well were seeded (in triplicate) in 40 μl assay medium in XF 96-well cell culture microplate coated with poly-D-lysine (Sigma). The plate was centrifuged at 300 g for 5 s with no brake, rotated 180 °, and centrifuged again for 5 s at 300 x g. After centrifugation, 140 μl of assay medium was added per well and the plate was left to stabilize in a 37 °C, non-CO2 incubator for 40 min. During seahorse, wells were sequentially injected with compounds to achieve final concentrations of […] oligomycin (Sigma); 2 μM FCCP (Sigma); 0.5 μM rotenone (Sigma) together with 0.5 μM antimycin A (Sigma). OCR was measured for each well three times, every three min, before and after each injection. OCR was normalized to protein concentration using a BCA Protein Assay kit (ThermoFisher Scientific) conducted according to the manufacturer’s instructions.

SMILES: CN(C)c1cc(NC(=O)CNC(C)(C)C)c(O)c2c1C[C@H]1C[C@H]3[C@H](N(C)C)C(O)=C(C(N)=O)C(=O)[C@@]3(O)C(O)=C1C2=O [Tigecycline, tigecycline]
- T cell culture proliferation ([1]; 10 μM administered 24 or 72 h after TCR stimulation): significantly reduce
- T cell proliferation ([1]; CD4+ and CD8+ T cells within PBMCs, 6 days of anti-CD3/CD28 stimulation + IL-2): dose-dependent reductions in proliferation
- % Cells in division 4 or later ([1]; CD4, 0H): 0.15% and 0.18% and 0.39%
- % Cells in each division ([1]; CD4, 0H, division number 1): 23.9% and 13% and 15.5%
- % Cells in each division ([1]; CD4, 0H, division number 2): 20.2% and 38.4% and 32.9%
- % Cells in each division ([1]; CD4, 0H, division number 4): 0.42% and 2.83% and 5.88%
- % Cells in each division ([1]; CD4, 0H, division number 5): 0% and 0.019% and 0.22%
- % Cells in each division ([1]; CD4, 0H, division number 6): 0%
- % Cells in each division ([1]; CD4, 0H, division number 7): 0%
- % Cells in division 4 or later ([1]; CD4, 10μM, 6 days, CTV dilution in live cells): 6.485% and 4.27% and 0.862% and 2.104% and 3.325%
- % Cells in division 4 or later ([1]; CD4, 24H): 0.21% and 0.19% and 0.9%
- % Cells in each division ([1]; CD4, 24H, division number 2): 18.2% and 32.4% and 28.8%
- % Cells in each division ([1]; CD4, 24H, division number 5): 0.044% and 0.15% and 0.38%
- % Cells in each division ([1]; CD4, 24H, division number 6): 0% and 0.01%
- % Cells in each division ([1]; CD4, 24H, division number 7): 0%
- % Cells in each division ([1]; CD4, 72H, division number 3): 22.6% and 24.4% and 18.1%
- % Cells in each division ([1]; CD4, 72H, division number 6): 1.08% and 0.32% and 1.2%
- % Cells in each division ([1]; CD4, 72H, division number 7): 0%
- % Cells in division 4 or later ([1]; CD8, 0H): 0.42% and 2.88% and 6.11%
- % Cells in each division ([1]; CD8, 0H, division number 1): 38.7% and 31.7%
- % Cells in each division ([1]; CD8, 0H, division number 2): 25.1% and 40.8% and 45.6%
- % Cells in each division ([1]; CD8, 0H, division number 3): 4.86% and 6.4% and 12.3%
- % Cells in each division ([1]; CD8, 0H, division number 4): 0.15% and 0.18% and 0.36%
- % Cells in each division ([1]; CD8, 0H, division number 5): 0% and 0.019%
- % Cells in each division ([1]; CD8, 0H, division number 6): 0%
- % Cells in each division ([1]; CD8, 0H, division number 7): 0%
- % Cells in division 4 or later ([1]; CD8, 2.5μM, 6 days, CTV dilution in live cells): 47.18% and 43.35% and 55.18% and 63.83% and 48.432%
- % Cells in division 4 or later ([1]; CD8, 10μM, 6 days, CTV dilution in live cells): 6.12% and 2.26% and 7.121% and 11.81% and 6.155%
- % Cells in each division ([1]; CD8, 24H, division number 1): 36.2% and 37.7% and 34%
- % Cells in each division ([1]; CD8, 24H, division number 2): 22.1% and 39.5% and 41.6%
- % Cells in each division ([1]; CD8, 24H, division number 3): 4.04% and 8.22% and 12.9%
- % Cells in each division ([1]; CD8, 24H, division number 4): 0.19% and 0.87%
- % Cells in each division ([1]; CD8, 24H, division number 5): 0.018% and 0% and 0.019%
- % Cells in each division ([1]; CD8, 24H, division number 6): 0%
- % Cells in each division ([1]; CD8, 24H, division number 7): 0%
- % Cells in each division ([1]; CD8, 72H, division number 0): 1.06% and 7.49% and 1.18%
- % Cells in each division ([1]; CD8, 72H, division number 2): 24.9% and 34.1% and 20.9%
- % Cells in each division ([1]; CD8, 72H, division number 3): 45.1% and 28.9% and 40.2%
- % Cells in each division ([1]; CD8, 72H, division number 5): 2.16% and 0.67% and 3.66%
- % Cells in each division ([1]; CD8, 72H, division number 6): 0.03% and 0.025% and 0.033%
- % Cells in each division ([1]; CD8, 72H, division number 7): 0%
- levels of subunits of complex I (NDUFB8), complex III (UQCRCII) and complex IV (COX2) (OXPHOS complexes): drop
- levels of subunits of complex II (SDHB) and complex V (ATP5A) (OXPHOS complexes): less affected
- glycolysis rates (PBMCs; 5 uM treatment): trended towards an increase
- glycolysis rates (PBMCs; 10 uM treatment): trended towards being decreased
- ATP coupled OCR (PBMCs; 5um): 0.02281 pmol/min/Norm. ug protein and -0.09216 pmol/min/Norm. ug protein and -0.102 pmol/min/Norm. ug protein and -0.498 pmol/min/Norm. ug protein
- Basal OCR (PBMCs; 5um): -0.181 pmol/min/Norm. ug protein and -0.2066 pmol/min/Norm. ug protein and 0.2924 pmol/min/Norm. ug protein and 0.06036 pmol/min/Norm. ug protein
- Maximal OCR (PBMCs; 5um): 0.6209 pmol/min/Norm. ug protein and 0.08625 pmol/min/Norm. ug protein and 0.8496 pmol/min/Norm. ug protein and -0.7482 pmol/min/Norm. ug protein
- Spare capacity OCR (PBMCs; 5um): 0.2929 pmol/min/Norm. ug protein and 0.5571 pmol/min/Norm. ug protein and -0.8086 pmol/min/Norm. ug protein
- ATP coupled OCR (PBMCs; 10um): -0.2018 pmol/min/Norm. ug protein and -0.1474 pmol/min/Norm. ug protein and -0.3438 pmol/min/Norm. ug protein and 0.00593 pmol/min/Norm. ug protein
- Basal OCR (PBMCs; 10um): -0.1538 pmol/min/Norm. ug protein and -0.01961 pmol/min/Norm. ug protein and -0.5181 pmol/min/Norm. ug protein and 0.03583 pmol/min/Norm. ug protein
- Maximal OCR (PBMCs; 10um): 0.1774 pmol/min/Norm. ug protein and 0.3784 pmol/min/Norm. ug protein and -0.2836 pmol/min/Norm. ug protein and 0.05421 pmol/min/Norm. ug protein
- Spare capacity OCR (PBMCs; 10um): 0.398 pmol/min/Norm. ug protein and 0.2345 pmol/min/Norm. ug protein and 0.01838 pmol/min/Norm. ug protein
- glycolysis (ECAR) (PBMCs; stimulated PBMCs, 5 and 10 μM, 6 days): did not observe a major compensatory increase in glycolysis
- basal, ATP-coupled, maximal and spare oxygen consumption rates (PBMCs; stimulated PBMCs, 5 and 10 μM, 6 days after stimulation): reduced
